Assay results: PubChem BioAssay AID334 (DTP/NCI, 2004)
Where “and” joins values, the source holds several entries; their conditions need not be identical. Equal entries are not always repeated. Inconclusive results and toxic doses are left out.

System: CD2F1 mice, intracerebral P388 leukemia, median survival T/C%
Assay: NCI In Vivo Anticancer Drug Screen. Data for tumor model P388 Leukemia (intracerebral) in CD2F1 (CDF1) mice
Conditions: endpoint: median survival time, higher = longer survival
Protocol: The antitumor activity of compounds was measured in mice bearing transplantable tumors. Survival or tumor size were measured and the results are expressed as the measurement made in the treated group (T) divided by the measurement made in the vehicle treated control group (C). The tumor model used in this assay is P388 Leukemia (intracerebral) in CD2F1 (CDF1) mice

[1] = dose: 25.0 mg/kg/injection, schedule: Q01DX009 (ip), vehicle: saline
[2] = dose: 50.0 mg/kg/injection, schedule: Q01DX009 (ip), vehicle: saline

COc1ccc2cc1Oc1ccc(cc1)C[C@H]1c3cc(c(OC)cc3CCN1C)Oc1c(OC)c(OC)cc3c1[C@H](C2)N(C)CC3
T/C (dose: 50.0 mg/kg/injection, schedule: Q01DX005 (ip), vehicle: Klucel (hydroxypropylcellulose) (HPC)): 105 % of control and 106 % of control | T/C (dose: 100.0 mg/kg/injection, schedule: Q01DX005 (ip), vehicle: Klucel (hydroxypropylcellulose) (HPC)): 102 % of control and 105 % of control | T/C (dose: 200.0 mg/kg/injection, schedule: Q01DX005 (ip), vehicle: Klucel (hydroxypropylcellulose) (HPC)): 99 % of control and 108 % of control | T/C (dose: 400.0 mg/kg/injection, schedule: Q01DX005 (ip), vehicle: Klucel (hydroxypropylcellulose) (HPC)): 97 % of control and 104 % of control

CC1(C)N=C(N)N=C(N)N1c1ccc(OCC(=O)N2CCOCC2)c(Cl)c1
T/C [1]: 88 % of control | T/C [2]: 111 % of control | T/C (dose: 100.0 mg/kg/injection, schedule: Q01DX009 (ip), vehicle: saline): 100 % of control

CC(=O)O[C@H]1C(=O)[C@@]2(C)[C@H]([C@H](OC(=O)c3ccccc3)[C@]3(O)C[C@H](OC(=O)[C@H](O)[C@@H](NC(=O)c4ccccc4)c4ccccc4)C(C)=C1C3(C)C)[C@]1(OC(C)=O)CO[C@@H]1C[C@@H]2O
T/C (dose: 2.5 mg/kg/injection, schedule: Q01DX009 (ip), vehicle: Klucel (hydroxypropylcellulose) (HPC)): 100 % of control | T/C (dose: 5.0 mg/kg/injection, schedule: Q01DX009 (ip), vehicle: Klucel (hydroxypropylcellulose) (HPC)): 103 % of control | T/C (dose: 10.0 mg/kg/injection, schedule: Q01DX009 (ip), vehicle: Klucel (hydroxypropylcellulose) (HPC)): 96 % of control | T/C (dose: 20.0 mg/kg/injection, schedule: Q01DX009 (ip), vehicle: Klucel (hydroxypropylcellulose) (HPC)): 86 % of control

NC(=S)N/N=C/c1ccc(O)cn1
T/C (dose: 12.0 mg/kg/injection, schedule: Q01DX005 (ip), vehicle: saline): 99 % of control and 100 % of control | T/C (dose: 24.0 mg/kg/injection, schedule: Q01DX005 (ip), vehicle: saline): 96 % of control and 97 % of control | T/C (dose: 48.0 mg/kg/injection, schedule: Q01DX005 (ip), vehicle: saline): 101 % of control and 106 % of control | T/C (dose: 96.0 mg/kg/injection, schedule: Q01DX005 (ip), vehicle: saline): 93 % of control and 103 % of control

CCC1=C(c2ccc(OC)cc2)CCC(C(=O)O)C1C (centres undefined)
T/C (dose: 4.0 mg/kg/injection, schedule: Q01DX005 (ip), vehicle: saline): 99 % of control and 104 % of control | T/C (dose: 8.0 mg/kg/injection, schedule: Q01DX005 (ip), vehicle: saline): 95 % of control and 100 % of control | T/C (dose: 16.0 mg/kg/injection, schedule: Q01DX005 (ip), vehicle: saline): 90 % of control and 98 % of control | T/C (dose: 32.0 mg/kg/injection, schedule: Q01DX005 (ip), vehicle: saline): 96 % of control and 102 % of control

CS(=O)(=O)CS(=O)(=O)OCCCl
T/C (dose: 6.25 mg/kg/injection, schedule: Q01DX009 (ip), vehicle: saline): 110 % of control | T/C (dose: 12.5 mg/kg/injection, schedule: Q01DX009 (ip), vehicle: saline): 114 % of control | T/C [1]: 164 % of control | T/C [2]: 203 % of control

COc1ccc2c(c1OC(C)=O)-c1cc(OC(C)=O)cc3c1C(C2)N(C(=O)CN(CCCl)CCCl)CC3 (centres undefined)
T/C (dose: 1.5 mg/kg/injection, schedule: Q01DX009 (ip), vehicle: DMSO): 104 % of control | T/C (dose: 3.0 mg/kg/injection, schedule: Q01DX009 (ip), vehicle: DMSO): 101 % of control | T/C (dose: 6.0 mg/kg/injection, schedule: Q01DX009 (ip), vehicle: DMSO): 100 % of control | T/C (dose: 12.0 mg/kg/injection, schedule: Q01DX009 (ip), vehicle: DMSO): 88 % of control

CC1(C)N=C(N)N=C(N)N1c1ccc(CNC(=O)Nc2cccc(S(=O)(=O)F)c2)cc1
T/C (dose: 150.0 mg/kg/injection, schedule: Q04DX003 (ip), vehicle: saline): 122 % of control | T/C (dose: 225.0 mg/kg/injection, schedule: Q04DX003 (ip), vehicle: saline): 116 % of control

CCCCCCCCCCCCCC(=O)OC12CC(C)C3(O)C(C=C(CO)C(O)C4(O)C(=O)C(C)=CC43)C1C2(C)C (centres undefined)
T/C (dose: 62.5 micrograms/kg/injection, schedule: Q01DX009 (ip), vehicle: acetone): 103 % of control | T/C (dose: 125.0 micrograms/kg/injection, schedule: Q01DX009 (ip), vehicle: acetone): 98 % of control | T/C (dose: 250.0 micrograms/kg/injection, schedule: Q01DX009 (ip), vehicle: acetone): 88 % of control | T/C (dose: 500.0 micrograms/kg/injection, schedule: Q01DX009 (ip), vehicle: acetone): 94 % of control

COc1cccc2c1C(=O)c1c(O)c3c(c(O)c1C2=O)CC(O)(C(=O)CO)CC3OC1CC(N)C(O)C(C)O1 (centres undefined)
T/C (dose: 0.78 mg/kg/injection, schedule: Q04DX003 (ip), vehicle: saline): 107 % of control | T/C (dose: 1.56 mg/kg/injection, schedule: Q04DX003 (ip), vehicle: saline): 98 % of control | T/C (dose: 3.12 mg/kg/injection, schedule: Q04DX003 (ip), vehicle: saline): 106 % of control | T/C (dose: 3.75 mg/kg/injection, schedule: Q04DX003 (ip), vehicle: clinical formulation): 100 % of control | T/C (dose: 3.75 mg/kg/injection, schedule: Q04DX003 (iv), vehicle: clinical formulation): 100 % of control | T/C (dose: 6.25 mg/kg/injection, schedule: Q04DX003 (ip), vehicle: saline): 97 % of control | T/C (dose: 7.5 mg/kg/injection, schedule: Q04DX003 (ip), vehicle: clinical formulation): 103 % of control | T/C (dose: 7.5 mg/kg/injection, schedule: Q04DX003 (iv), vehicle: clinical formulation): 99 % of control | T/C (dose: 12.5 mg/kg/injection, schedule: Q04DX003 (ip), vehicle: saline): 103 % of control | T/C (dose: 15.0 mg/kg/injection, schedule: Q04DX003 (ip), vehicle: clinical formulation): 100 % of control | T/C (dose: 15.0 mg/kg/injection, schedule: Q04DX003 (iv), vehicle: clinical formulation): 106 % of control | T/C (dose: 25.0 mg/kg/injection, schedule: Q04DX003 (ip), vehicle: saline): 91 % of control | T/C (dose: 30.0 mg/kg/injection, schedule: Q04DX003 (iv), vehicle: clinical formulation): 90 % of control

Nc1nc(F)nc2c1ncn2C1OC(COP(=O)(O)O)C(O)C1O (centres undefined)
T/C (dose: 60.0 mg/kg/injection, schedule: Q01DX009 (ip), vehicle: saline): 102 % of control | T/C (dose: 90.0 mg/kg/injection, schedule: Q01DX009 (ip), vehicle: saline): 111 % of control | T/C (dose: 134.0 mg/kg/injection, schedule: Q01DX009 (ip), vehicle: saline): 119 % of control | T/C (dose: 200.0 mg/kg/injection, schedule: Q01DX009 (ip), vehicle: saline): 205 % of control

Nc1nncs1
T/C (dose: 64.0 mg/kg/injection, schedule: Q01DX005 (ip), vehicle: saline with Tween-80): 119 % of control | T/C (dose: 128.0 mg/kg/injection, schedule: Q01DX005 (ip), vehicle: saline with Tween-80): 160 % of control and 169 % of control | T/C (dose: 256.0 mg/kg/injection, schedule: Q01DX005 (ip), vehicle: saline with Tween-80): 180 % of control

O=C1c2c(O)ccc(O)c2C(=O)c2c(NCCNCCO)ccc(NCCNCCO)c21
T/C (dose: 0.5 mg/kg/injection, schedule: Q01DX009 (ip), vehicle: saline with Tween-80): 100 % of control | T/C (dose: 1.0 mg/kg/injection, schedule: Q01DX009 (ip), vehicle: saline with Tween-80): 105 % of control | T/C (dose: 2.0 mg/kg/injection, schedule: Q01DX009 (ip), vehicle: saline with Tween-80): 106 % of control

CC(=O)N[C@@H](Cc1ccc(N(CCCl)CCCl)cc1)C(=O)ON1C(=O)CCC1=O
T/C (dose: 1.45 mg/kg/injection, schedule: Q03HX008 (ip), vehicle: saline): 105 % of control | T/C (dose: 2.9 mg/kg/injection, schedule: Q03HX008 (ip), vehicle: saline): 105 % of control | T/C (dose: 5.8 mg/kg/injection, schedule: Q03HX008 (ip), vehicle: saline): 115 % of control

COc1cc(NC(=O)CN(CCCl)CCCl)cc(OC)c1OC
T/C (dose: 12.5 mg/kg/injection, schedule: Q01DX009 (ip), vehicle: saline with Tween-80): 113 % of control and 102 % of control | T/C (dose: 25.0 mg/kg/injection, schedule: Q01DX009 (ip), vehicle: saline with Tween-80): 104 % of control and 107 % of control | T/C (dose: 50.0 mg/kg/injection, schedule: Q01DX009 (ip), vehicle: saline with Tween-80): 114 % of control and 118 % of control | T/C (dose: 100.0 mg/kg/injection, schedule: Q01DX009 (ip), vehicle: saline with Tween-80): 114 % of control | T/C (dose: 200.0 mg/kg/injection, schedule: Q01DX009 (ip), vehicle: saline with Tween-80): 87 % of control

O=P1(N(CCCl)CCCl)NCCCO1 (centres undefined)
T/C (dose: 265.0 mg/kg/injection, schedule: Q01DX001 (ip), vehicle: saline): 163 % of control

N=[N+]=CC(=O)CCC(NC(=O)C(CCC(=O)C=[N+]=N)NC(=O)CCC(N)C(=O)O)C(=O)O (centres undefined)
T/C (dose: 0.05 mg/kg/injection, schedule: Q01DX005 (ip), vehicle: Klucel (hydroxypropylcellulose) (HPC)): 106 % of control | T/C (dose: 0.1 mg/kg/injection, schedule: Q01DX005 (ip), vehicle: Klucel (hydroxypropylcellulose) (HPC)): 96 % of control and 104 % of control | T/C (dose: 0.2 mg/kg/injection, schedule: Q01DX005 (ip), vehicle: Klucel (hydroxypropylcellulose) (HPC)): 100 % of control and 103 % of control | T/C (dose: 0.4 mg/kg/injection, schedule: Q01DX005 (ip), vehicle: Klucel (hydroxypropylcellulose) (HPC)): 100 % of control and 105 % of control
